# Results published in US5606037A, “Processes antineoplastic heteronaphthoquinones” (BioChem Pharma Inc., priority 1995, dated 1997).
# pIC50: −log10 of the molar value. Structures can show the parent of a compound that is named as a salt.
# What was measured:
# Assay type in all cases: cell-based, Human
# [1] = system: SKOV3 (Ovarian adenocarcinoma); assay: In vitro cytotoxicity, microculture tetrazolium (MTT) assay, SKOV3; conditions: for pIC50: SKOV3 ovarian adenocarcinoma, 48 h with compound, further 48 h, MTT, Table 1
# How it was run: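 Cells plated overnight, then exposed to compound (1:3 dilutions, 100 μM to 1.7 nM, quadruplicate) 48 h at 37 °C, followed by 48 h in fresh medium. MTT 4 h, formazan extracted in DMSO/Sorensen's buffer pH 10.5, A570; four-parameter logistic fit on 0–100% survival scale.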
# [2] = system: SKVLB (Ovarian; multidrug resistant); assay: In vitro cytotoxicity, microculture tetrazolium (MTT) assay, SKVLB; conditions: for pIC50: SKVLB multidrug resistant ovarian, 48 h with compound, further 48 h, MTT, Table 1
# How it was run: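 Multidrug-resistant SKVLB ovarian cells, 1,500–4,000 per well, exposed to compound (1:3 dilutions, 100 μM to 1.7 nM, quadruplicate) for 48 h at 37 °C, then 48 h in fresh medium. Viability by MTT reduction, formazan read at 570 nm; four-parameter logistic fit on a 0–100% survival scale.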
# [3] = system: T47D (Ductal carcinoma of breast); assay: In vitro cytotoxicity, microculture tetrazolium (MTT) assay, T47D; conditions: 48 h with compound, further 48 h, Table 1
# How it was run: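 Adherent cells (1,500-4,000/well) were exposed to compound in 1:3 dilutions from 100 μM to 1.7 nM, in quadruplicate, for 48 h at 37° C, followed by 48 h in fresh medium. MTT formazan was read at 570 nm, and data were fitted by four-parameter logistic on a 0-100% survival scale.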
# Lox (Melanoma) = assay: In vitro cytotoxicity, microculture tetrazolium (MTT) assay, LOX; conditions: 48 h with compound, further 48 h, Table 1
# How it was run: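 LOX melanoma cells, 1,500–4,000 per well, exposed to compound (1:3 dilutions, 100 μM to 1.7 nM) for 48 h at 37° C., then 48 h in fresh medium. MTT reduction read at 570 nm; four-parameter logistic fit normalized to 0–100% survival.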
# [4] = system: HT 29 (Colon adenocarcinoma); assay: In vitro cytotoxicity, microculture tetrazolium (MTT) assay, HT29; conditions: further 48 h, Table 1
# How it was run: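 HT29 cells exposed to compound (1:3 series, 100 μM to 1.7 nM, quadruplicate) for 48 h at 37 °C, then 48 h in fresh medium. Viability by MTT reduction, formazan absorbance at 570 nm; four-parameter logistic fit on 0-100% survival scale.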
# VLB/OV3 = assay: Resistance ratio of SKVLB over SKOV3 cytotoxicity (VLB/OV3); conditions: ratio SKVLB to SKOV3; Table 1; 2880 min
# Experimental: The microculture tetrazolium assay was used to test in vitro cytotoxicity. This assay is described in Plumb, J. A. et al., 1989 Cancer Research 49, 4435-4440, which is herein incorporated by reference. The cytotoxicity of compounds towards tumor cells is measured in vitro using the assay. This assay method is based upon the ability of live, but not dead cells to reduce the yellow water soluble dye 3-(4,5-dimethylthiazol-2-yl)-2,5-diphenyltetrazolium bromide (MTT) to its water insoluble purple formazan product.
# SKOV3 (Ovarian adenocarcinoma)--provided by Dr. V. Ling, Ontario Cancer Institute.
# SKVLB (Ovarian; multidrug resistant)--Dr. V. Ling, Ontario Cancer Institute.
# For each assay, doxorubicin is included as an inter-assay standard. This allows us to monitor the behaviour of the assay in general, and in particular, to check that the SKVLB line has maintained its resistant phenotype.
# Cells are plated out in 100 μl of culture medium in the microtiter plates at a density of around 1,500-4,000 cells per well. The plates are incubated overnight to allow the cells to become adherent after which the test compound is added (100 μl of appropriate dilution per well). The cells are incubated with test compound at 37° C. for 48 h after which the compound is replaced with fresh medium. After a further 48 h incubation at 37° C., 50 μl of MTT solution (2 mg/ml) is added to each well. The plates are incubated in the dark for 4 h at 37° C. after which the medium is removed. The MTT formazan product is extracted from the cells by the addition of 200 μl DMSO followed by 50 μl of Sorensen's buffer. The plates are shaken briefly and the absorbance at 570 nm is read using a Molecular Devices UV max plate reader. Curves are fit to the MTT assay data using a four parameter logistic equation, and the data are normalized to fit a 0% to 100% survival scale.
# [5] = Homo sapiens, HT-29, 48 h with compound
Compound,"pIC50 ([1]; Homo sapiens, SK-OV-3)",pIC50 ([2]; Homo sapiens),pIC50 ([3]; Homo sapiens),pIC50 (Lox (Melanoma); Homo sapiens),"pIC50 [4, 5]",VLB/OV3 (VLB/OV3),pIC50 [1],pIC50 [2],pIC50 [3],pIC50 (Lox (Melanoma)),pIC50 ([4]; 48 h with compound),"in vitro antitumor potency ([1]; in vitro, Tables 1 and 2)",multidrug resistance / effect in multidrug resistant cell line SKVLB ([2]; SKVLB cell line)
"CO[C@@H]1O[C@@H](C(=O)O)CC2=C1C(=O)c1ccccc1C2=O (relative stereo) [BCH2045, (1,3-trans)-1-methoxy-3-carboxyl-5,10-dioxo-3,4,5,10-tetrahydro-1H-naphtho-[2,3-c]-pyran]",5.28,4.82,4.89,5.34,5.95,3,–,–,–,–,–,–,–
"CC(C)[C@H]1CC2=C(C(=O)c3ccccc3C2=O)[C@H](O[C@H]2C[C@H](NC(=O)C(F)(F)F)[C@H](O)[C@H](C)O2)O1 [BCH2052, (1'S, 1S, 3R)-5,10-dioxo-3-isopropyl-1-(2',3',6'-trideoxy-3'-trifluoroacetamido-L-lyxohexopyranose)-3,4,5,10-tetrahydro-1H-naphtho-[2,3-c]-pyran]",5.15 to 5.27,4.55 to 4.69,4.63 to 5.02,5.49 to 5.52,4.81 to 4.97,3.78-4.02,–,–,–,–,–,–,–
"CO[C@H]1C[C@H](O[C@@H]2O[C@@H](C(C)=O)CC3=C2C(=O)c2ccccc2C3=O)O[C@@H](C)[C@H]1OS(C)(=O)=O [BCH2072, (1'-S, 1'S, 3-R)-methyl-(1-[2',3',4',6' tetradeoxy-3'-methoxy-4'-O-methanesulfonyl-L-lyxohexopyranose)-5,10-dioxo-3,4,5,10 tetrahydronaphtho-[2,3-c]pyran-3-yl) ketone]",6.95 to 7.19,6.00 to 6.50,6.46 to 7.63,6.99,7.00 to 7.27,2.79-15.46,–,–,–,–,–,–,–
"CC(=O)C1CC2=C(C(=O)c3ccccc3C2=O)C(OCC2CCN(C(=O)OC(C)(C)C)CC2)O1.Cl (racemic) [BCH2068, Methyl-(1-O-[N-BOC-4-piperidine-methanol]-5,10-dioxo-3,4,5,10-tetrahydronaphthaleno-[2,3-c]pyran-3-yl) ketone, racemic, hydrochloride]",–,–,–,–,–,1,–,–,–,–,–,–,–
"(1S, 2'S, 3R) and (1R, 2'S, 3S)-methyl-(1-[O-prolinol]-3,4,5,12-tetrahydronaphtho-[2,3-C]pyran-3-yl) ketone hydrochloride salt [BCH1658]",–,–,–,–,–,6.31,6.63,5.83,6.31,6.50,6.18,–,–
"CC(=NO)[C@@H]1CC2=C(C(=O)c3ccccc3C2=O)[C@@H](O[C@H]2C[C@H](NC(=O)C(F)(F)F)[C@H](O)[C@H](C)O2)O1 [BCH2115, (1'S, 1R, 3S)-3 (oximoethyl)-5,10-dioxo-1 (2,3,6-trideoxy-3-trifluoroacetamido-L-lyxohexopyranose)-3,4,5,10-tetrahydro-1H-naphtho-(2,3-c)-pyran]",–,–,–,–,–,> 50,5.64,–,5.28,5.40,5.25,–,–
"CO[C@@H]1O[C@@H](C(=O)Nc2ccccc2)CC2=C1C(=O)c1ccccc1C2=O (relative stereo) [BCH2041, (1,3-trans)-anline-(1-methoxy-5,10-dioxo-3,4,5,10-tetrahydro-1H-naphtho-[2,3-c]-pyran)-3-carboxamide]",5.67,5.00,5.25,5.72,5.72,5,–,–,–,–,–,–,–
"CC(=O)C1CC2=C(C(=O)c3ccccc3C2=O)C(OCC2CCCCN2)O1 (racemic) [BCH2069, Methyl-(1-O-[2'-piperidinemethanol]-5,10-dioxo-3,4,5,10-tetrahydronaphthaleno-[2,3-c]pyran-3-yl) ketone, racemic, hydrochloride]",7.31,6.32 to 7.08,5.95,7.04,6.46,2-9.78,–,–,–,–,–,–,–
"COP(=O)(CC(=O)[C@H]1CC2=C(C(=O)c3ccccc3C2=O)[C@H](O[C@H]2C[C@H](NC(=O)C(F)(F)F)[C@H](O)[C@H](C)O2)O1)OC [BCH1690, (1'S,1S,3R)-1-(2',3',6'-trideoxy-3'-trifluoroacetamido-L-lyxohexopyranose)-3-dimethylphosphonoacetyl-5,10-dioxo-3,4,5-10-tetrahydro-1H-naphtho-[2,3-c]-pyran]",–,–,–,–,–,7.70,–,–,–,–,–,–,–
"C=CC[C@@H]1CC2=C(C(=O)c3ccccc3C2=O)[C@@H](O[C@H]2C[C@H](NC(=O)C(F)(F)F)[C@H](O)[C@H](C)O2)O1 (mixture of isomers) [BCH2031, (1'S,1S,3S) and (1'S,1-R,3-R)-3-([2',3',6'-trideoxy-3'-trifluoroacetamido-4'-hydroxy-L-lyhohexopyranose]-5,10-dioxo-3,4,5,10-tetrahydronaphtho-[2,3-c]-pyran-3-yl)-propene]",–,–,–,–,–,3,5.22,–,4.80,5.55,5.07,–,–
"CC(=O)C1CC2=C(C(=O)c3ccccc3C2=O)C(OC2CC(NC(=O)C(F)(F)F)C(O)C(C)O2)O1 [BCH2144, (1R, 3S)-1-(2',3',6'-trideoxy-3'-trifluoroacetamido-4'-hydroxy-1,5-dihydro-L-lyxohexopyranose-2-yl)-5,10-dioxo-3,4,5,10-tetrahydro-1H-naphtho-[2,3-c] pyran]",–,–,–,–,–,0.75,–,–,–,–,–,–,–
"CC(=O)C1CC2=C(C(=O)c3ccccc3C2=O)C(OC[C@@H]2CCCN2C(=O)OC(C)(C)C)O1 (mixture of isomers) [BCH2067, (1S, 2'S, 3R) and (1R, 2'S, 3S)-methyl-(1-[O-N-BOC-prolinol]-5,10-dioxo-3,4,5,10-tetrahydro-1-H-naphtho[2,3-C]pyran-3-yl) ketone]",5.92,–,6.27,5.96,6.49,2,–,–,–,–,–,–,–
"COC1OC(C(=O)NCCCN(C)C)=CC2=C1C(=O)c1ccccc1C2=O (stereo not drawn) [BCH2051, 1-Methoxy-5,10-dioxo-5,10-dihydro-1H-naphtho[2,3-c]pyran-3-[N-(3-dimethylamino-propyl)carboxamide] hydrochloride monohydrate]",7.54 to 8.14,6.39 to 7.17,7.16 to 7.38,7.52 to 7.78,6.87 to 7.04,9.3-14.14,–,–,–,–,–,intense in vitro antitumor potency,significantly avoiding multidrug resistance
"CC(=O)OC1C(C)OC(OC2OC(C(C)=O)CC3=C2C(=O)c2ccccc2C3=O)C(I)C1OC(C)=O (mixture of isomers) [BCH2065, (1'S,1R,1S) and (1'S,1S,3R)-methyl-(1-[2',6'-dideoxy-3',4'-diacetoxy-2'-iodo-L-arabino-hexopyranose]-5,10-dioxo-3,4,5,10-tetrahydronaphtho-[2,3-c]-pyran-3-yl) ketone]",–,–,–,–,–,4,–,–,–,–,–,–,–
"CC[C@@H]1CC2=C(C(=O)c3ccccc3C2=O)[C@@H](O[C@H]2C[C@H](NC(=O)C(F)(F)F)[C@H](O)[C@H](C)O2)O1 [BCH2026, (1'S, 1R, 3R)-5,10-dioxo-3-ethyl-1-(2',3',6'-trideoxy-3'-trifluoroacetamido-L-lyxohexopyranose)-3,4,5,10-tetrahydro-1H-naphtho-[2,3-c]pyran]",4.82,< 4.00,4.50,5.67,4.66,> 7,–,–,–,–,–,–,–
